Assay results reported in ChEMBL document CHEMBL1138228, “N,N'-Bisbenzylidenebenzene-1,4-diamines and N,N'-Bisbenzylidenenaphthalene-1,4-diamines as Sirtuin Type 2 (SIRT2) Inhibitors” (J Med Chem, 2006).

How the values were obtained:
[1] = biological target: T1, NAD-dependent protein deacetylase sirtuin-2 (Homo sapiens) (UniProt Q8IXJ6); test: Inhibition of SIRT2 at 200 uM
T1 sequence (whole entry): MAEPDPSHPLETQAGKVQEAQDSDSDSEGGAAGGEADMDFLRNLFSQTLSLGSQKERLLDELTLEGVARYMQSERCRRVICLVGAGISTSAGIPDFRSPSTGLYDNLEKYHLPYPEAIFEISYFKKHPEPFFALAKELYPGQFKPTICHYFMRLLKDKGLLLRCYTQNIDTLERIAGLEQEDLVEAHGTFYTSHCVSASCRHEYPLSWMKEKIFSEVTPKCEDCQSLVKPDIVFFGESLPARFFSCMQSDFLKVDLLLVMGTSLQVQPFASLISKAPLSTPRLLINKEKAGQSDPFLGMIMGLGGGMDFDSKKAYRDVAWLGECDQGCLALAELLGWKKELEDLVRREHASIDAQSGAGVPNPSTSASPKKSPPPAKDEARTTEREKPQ

[2] = biological target: T2, NAD-dependent protein deacetylase sirtuin-2 (Homo sapiens, UniProt Q8IXJ6); test: Inhibition of SIRT2
T2 sequence (Q8IXJ6 whole entry): T1 sequence (whole entry)

Row | inhibition [1] [%] | IC50 [2] [µM] | SMILES
1 | 17 | – | COc1ccc(/C=N/c2ccc(/N=C/c3ccc(OC)cc3)c3ccccc23)cc1
2 | 34 | – | COc1ccccc1/C=N/c1ccc(/N=C/c2ccccc2OC)c2ccccc12
3 | 20 | – | COc1cccc(/C=N/c2ccc(/N=C/c3cccc(OC)c3)cc2)c1
4 | 35 | – | C(=N\c1ccc(/N=C/c2ccccc2)cc1)/c1ccccc1
5 | 21 | – | c1ccc(CNc2ccc(NCc3ccccc3)cc2)cc1
6 | 53 | 196 | Oc1cccc(/C=N/c2ccc(/N=C/c3cccc(O)c3)c3ccccc23)c1
7 | 38 | – | Oc1ccccc1/C=N/c1ccc(/N=C/c2ccccc2O)c2ccccc12
8 | 14 | – | Oc1ccc(CNc2ccc(NCc3ccc(O)cc3)cc2)cc1
9 | 22 | – | Oc1ccc(/C=N/c2ccc(/N=C/c3ccc(O)cc3)cc2)cc1
10 | 64 | 137 | Oc1ccc(/C=N/c2ccc(/N=C/c3ccc(O)cc3)c3ccccc23)cc1
11 | 56 | 58.4 | Oc1ccccc1/C=N/c1ccc(/N=C/c2ccccc2O)cc1
12 | 18 | – | C(=N\c1ccc(/N=C/c2ccccc2)c2ccccc12)/c1ccccc1
13 | 20 | – | COc1cccc(/C=N/c2ccc(/N=C/c3cccc(OC)c3)c3ccccc23)c1
14 | 13 | – | COc1ccccc1/C=N/c1ccc(/N=C/c2ccccc2OC)cc1
15 | 8 | – | Oc1cccc(CNc2ccc(NCc3cccc(O)c3)cc2)c1
16 | 13 | – | Oc1ccc(/C=N/c2ccc(/N=C/c3ccc(O)c(O)c3)cc2)cc1O
17 | 12 | – | Oc1cccc(/C=N/c2ccc(/N=C/c3cccc(O)c3)cc2)c1
18 | 27 | – | Oc1ccccc1CNc1ccc(NCc2ccccc2O)cc1
